Test results taken from ChEMBL document CHEMBL4152235, “Synthesis, anionophoric activity and apoptosis-inducing bioactivity of benzimidazolyl-based transmembrane anion transporters” (Eur J Med Chem, 2018).
Activity calls are given as the source filed them. The rule behind the calls is not given here.

Key:
HeLa [1] = experiment: Cytotoxicity against human HeLa cells assessed as reduction in cell viability after 48 hrs by MTT assay; type: functional, cell-based
[2] = (§1) Ionophoric activity across pyranine dye encapsulated pH 7 egg yolk L-alpha-phosphatidylcholine-based liposomal membranes assessed as chloride ion transport by measuring initial rate constant for induction of pH discharge at 4.88 x 10^-4 mol% after 20 mins in presence of NaCl loaded external vesicles by fluorescence method (reference value: 5.03 +/- 1.02 10^-3/min)
[3] = Ionophoric activity across pyranine dye encapsulated pH 7 egg yolk L-alpha-phosphatidylcholine-based liposomal membranes assessed as chloride ion transport by measuring induction of pH discharge at 1.95 x 10^-3 mol% after 20 mins in presence of CsCl loaded external vesicles by fluorescence method
[4] = Ionophoric activity across pyranine dye encapsulated pH 7 egg yolk L-alpha-phosphatidylcholine-based liposomal membranes assessed as chloride ion transport by measuring induction of pH discharge at 1.95 x 10^-3 mol% after 20 mins in presence of KCl loaded external vesicles by fluorescence method
MCF7 [5] = experiment: Cytotoxicity against human MCF7 cells assessed as reduction in cell viability after 48 hrs by MTT assay; type: functional, cell-based; settings: MCF7, 48 h
HepG2 [6] = experiment: Cytotoxicity against human HepG2 cells assessed as reduction in cell viability after 48 hrs by MTT assay; type: functional, cell-based; settings: HepG2, 48 h
[7] = Ionophoric activity across pyranine dye encapsulated pH 7 egg yolk L-alpha-phosphatidylcholine-based liposomal membranes assessed as chloride ion transport by measuring induction of pH discharge at 1.95 x 10^-3 mol% after 20 mins in presence of RbCl loaded external vesicles by fluorescence method
HeLa [8] = experiment: Cytotoxicity against human HeLa cells assessed as reduction in cell viability at 50 uM after 48 hrs by MTT assay relative to control; type: functional
[9] = Ionophoric activity across pyranine dye encapsulated pH 7 egg yolk L-alpha-phosphatidylcholine-based liposomal membranes assessed as iodide ion transport by measuring induction of pH discharge at 1.95 x 10^-3 mol% after 20 mins in presence of NaI loaded external vesicles by fluorescence method
[10] = Ionophoric activity across pyranine dye encapsulated pH 7 egg yolk L-alpha-phosphatidylcholine-based liposomal membranes assessed as chloride ion transport by measuring induction of pH discharge after 20 mins in presence of NaCl loaded external vesicles by fluorescence method relative to m-Bimbe
[11] = as §1, with “1.95” for “4.88”, “10^-3” for “10^-4”
[12] = as §1, with “3.91” for “4.88”, “10^-3” for “10^-4”
[13] = Binding affinity to chloride ion at 1.5 x 10^-5M using tetra(n-butyl)ammonium chloride measured after 5 mins by spectrophotometric titration method
A549 [14] = experiment: Cytotoxicity against human A549 cells assessed as reduction in cell viability after 48 hrs by MTT assay; type: functional, cell-based; settings: A549, 48 h
L02 = experiment: Cytotoxicity against human LO2 cells assessed as reduction in cell viability after 48 hrs by MTT assay; type: cell-based; settings: L02, 48 h
[15] = Ionophoric activity across pyranine dye encapsulated pH 7 egg yolk L-alpha-phosphatidylcholine-based liposomal membranes assessed as nitrate ion transport by measuring induction of pH discharge at 1.95 x 10^-3 mol% after 20 mins in presence of NaNO3 loaded external vesicles by fluorescence method
[16] = as §1, with “1.56” for “4.88”, “10^-2” for “10^-4”
[17] = Ionophoric activity across pyranine dye encapsulated pH 7 egg yolk L-alpha-phosphatidylcholine-based liposomal membranes assessed as chloride ion transport by measuring induction of pH discharge after 20 mins in presence of NaCl loaded external vesicles by fluorescence method
[18] = Ionophoric activity across pyranine dye encapsulated pH 7 egg yolk L-alpha-phosphatidylcholine-based liposomal membranes assessed as chloride ion transport by measuring induction of pH discharge at 1.95 x 10^-3 mol% after 20 mins in presence of LiCl loaded external vesicles by fluorescence method
[19] = Ionophoric activity across lucigenin probe encapsulated pH 7 egg yolk L-alpha-phosphatidylcholine-based large unilamellar vesicles loaded with Na2SO4 assessed as chloride ion efflux at 1.56 x 10^-2mol% after 20 mins in presence of NaCl loaded external vesicles by fluorescence method
[20] = Ionophoric activity across pyranine dye encapsulated pH 7 POPC-cholesterol-based liposomal membranes assessed as chloride ion transport by measuring induction of pH discharge at 7.81 x 10^-3mol% after 20 mins in presence of NaCl loaded external vesicles by fluorescence method
[21] = Ionophoric activity across pyranine dye encapsulated pH 7 egg yolk L-alpha-phosphatidylcholine-based liposomal membranes assessed as bromide ion transport by measuring induction of pH discharge at 1.95 x 10^-3 mol% after 20 mins in presence of NaBr loaded external vesicles by fluorescence method
[22] = Binding affinity to chloride ion assessed as 1:1 compound-Cl- complex formation at 4.1 mM using tetra(n-butyl)ammonium chloride by ESI MS spectrometric method
HepG2 [23] = experiment: Cytotoxicity against human HepG2 cells assessed as reduction in cell viability at 50 uM after 48 hrs by MTT assay relative to control; type: functional; settings: HepG2, 48 h
A549 [24] = experiment: Cytotoxicity against human A549 cells assessed as reduction in cell viability at 50 uM after 48 hrs by MTT assay relative to control; type: functional; settings: A549, 48 h
[25] = as §1, with “7.81” for “4.88”, “10^-3” for “10^-4”
[26] = Ionophoric activity across lucigenin probe encapsulated pH 7 egg yolk L-alpha-phosphatidylcholine-based large unilamellar vesicles loaded with Na2SO4 assessed as chloride ion efflux at 1.56 x 10^-2mol% after 20 mins in presence of NaCl/Na2SO4 loaded external vesicles by fluorescence method
MCF7 [27] = experiment: Cytotoxicity against human MCF7 cells assessed as reduction in cell viability at 50 uM after 48 hrs by MTT assay relative to control; type: functional; settings: MCF7, 48 h
[28] = Ionophoric activity across pyranine dye encapsulated pH 7 egg yolk L-alpha-phosphatidylcholine-based liposomal membranes assessed as chloride ion transport by measuring induction of pH discharge at 1.95 x 10^-3 mol% after 20 mins in presence of NaCl loaded external vesicles by fluorescence method
[29] = as §1, with “9.77” for “4.88”
[30] = as §1, with “1.0” for “4.88 x 10^-4”
[31] = Ionophoric activity across lucigenin probe encapsulated pH 7 egg yolk L-alpha-phosphatidylcholine-based large unilamellar vesicles loaded with Na2SO4 assessed as chloride ion efflux at 1 mol% after 20 mins in presence of NaCl/Na2SO4 loaded external vesicles by fluorescence method
[32] = Ionophoric activity across pyranine dye encapsulated pH 7 egg yolk L-alpha-phosphatidylcholine-based liposomal membranes assessed as chloride ion transport by measuring induction of pH discharge at 0.25 mol% after 20 mins in presence of KCl loaded external vesicles by fluorescence method
[33] = as §1, with “0.2500” for “4.88 x 10^-4”
[34] = Ionophoric activity across pyranine dye encapsulated pH 7 POPC-cholesterol-based liposomal membranes assessed as chloride ion transport by measuring induction of pH discharge at 1 mol% after 20 mins in presence of NaCl loaded external vesicles by fluorescence method
[35] = Ionophoric activity across pyranine dye encapsulated pH 7 egg yolk L-alpha-phosphatidylcholine-based liposomal membranes assessed as nitrate ion transport by measuring induction of pH discharge at 0.25 mol% after 20 mins in presence of NaNO3 loaded external vesicles by fluorescence method
[36] = Ionophoric activity across pyranine dye encapsulated pH 7 egg yolk L-alpha-phosphatidylcholine-based liposomal membranes assessed as bromide ion transport by measuring induction of pH discharge at 0.25 mol% after 20 mins in presence of NaBr loaded external vesicles by fluorescence method
[37] = Ionophoric activity across pyranine dye encapsulated pH 7 egg yolk L-alpha-phosphatidylcholine-based liposomal membranes assessed as chloride ion transport by measuring induction of pH discharge at 0.25 mol% after 20 mins in presence of RbCl loaded external vesicles by fluorescence method
[38] = Ionophoric activity across pyranine dye encapsulated pH 7 egg yolk L-alpha-phosphatidylcholine-based liposomal membranes assessed as chloride ion transport by measuring induction of pH discharge at 0.25 mol% after 20 mins in presence of NaCl loaded external vesicles by fluorescence method
[39] = Ionophoric activity across pyranine dye encapsulated pH 7 egg yolk L-alpha-phosphatidylcholine-based liposomal membranes assessed as iodide ion transport by measuring induction of pH discharge at 0.25 mol% after 20 mins in presence of NaI loaded external vesicles by fluorescence method
[40] = Ionophoric activity across lucigenin probe encapsulated pH 7 egg yolk L-alpha-phosphatidylcholine-based large unilamellar vesicles loaded with Na2SO4 assessed as chloride ion efflux at 1 mol% after 20 mins in presence of NaCl loaded external vesicles by fluorescence method
[41] = as §1, with “0.1250” for “4.88 x 10^-4”
[42] = Ionophoric activity across lucigenin probe encapsulated pH 7 egg yolk L-alpha-phosphatidylcholine-based large unilamellar vesicles loaded with NaNO3 assessed as chloride ion efflux at 0.0625 to 1 mol% after 20 mins in presence of NaCl loaded external vesicles by fluorescence method
[43] = Ionophoric activity across pyranine dye encapsulated pH 7 egg yolk L-alpha-phosphatidylcholine-based liposomal membranes assessed as chloride ion transport by measuring induction of pH discharge at 0.25 mol% after 20 mins in presence of LiCl loaded external vesicles by fluorescence method
[44] = Ionophoric activity across pyranine dye encapsulated pH 7 egg yolk L-alpha-phosphatidylcholine-based liposomal membranes assessed as chloride ion transport by measuring induction of pH discharge at 0.25 mol% after 20 mins in presence of CsCl loaded external vesicles by fluorescence method
[45] = as §1, with “0.5” for “4.88 x 10^-4”
[46] = as §1, with “0.0625” for “4.88 x 10^-4”
MCF7 [47] = experiment: Ionophoric activity across human MCF7 cells assessed as chloride ion efflux up to 10 uM after 2 hrs by MQAE dye based fluorescence assay; type: cell-based
[48] = as §1, with “1.25” for “4.88”, “10^-1” for “10^-4”
HeLa [49] = experiment: Ionophoric activity across human HeLa cells assessed as chloride ion efflux at 10 uM after 3 hrs by acridine orange staining based fluorescence microscopic analysis; type: cell-based
HeLa [50] = experiment: Ionophoric activity across human HeLa cells assessed as chloride ion efflux up to 10 uM after 2 hrs by MQAE dye based fluorescence assay; type: cell-based
[51] = as §1, with “2.50” for “4.88”, “10^-1” for “10^-4”
[52] = as §1, with “6.25” for “4.88”, “10^-2” for “10^-4”
[53] = as §1, with “3.13” for “4.88”, “10^-2” for “10^-4”

| fold change (FC) [10] | Ka [13] | K [16] | Activity [17] | EC50 [17] | EC50 ([17]; read-out: EC50) | Activity [22] | K [25] | SMILES | IC50 (HeLa [1]) | IC50 (MCF7 [5]) | IC50 (HepG2 [6]) | inhibition at 50 µM (HeLa [8]) | IC50 (A549 [14]) | IC50 (L02) | inhibition at 50 µM (HepG2 [23]) | inhibition at 50 µM (A549 [24]) | inhibition at 50 µM (MCF7 [27]) | also measured |
| --- | --- | --- | --- | --- | --- | --- | --- | --- | --- | --- | --- | --- | --- | --- | --- | --- | --- | --- |
| 2370 | 8.18 ×10³ /M | 1.99 ×10⁻¹ /min | Dose-dependent effect | 2.73 ×10⁻³ mol% | 0.036 µM | Active | 1.81 ×10⁻¹ /min | O=[N+]([O-])c1cc(-c2nc3ccc([N+](=O)[O-])cc3[nH]2)cc(-c2nc3ccc([N+](=O)[O-])cc3[nH]2)c1 | 1.2 to 1.3 µM | 1.2 µM | 11.1 µM | 94.1% | 13.6 µM | 44.9 µM | 81.3% | 78.7% | 94.7% | K [2]: 2.43 ×10⁻² /min; Activity [3]: Active; Activity [4]: Active; Activity [7]: Active; Activity [9]: inactive; K [11]: 8.98 ×10⁻² /min; K [12]: 1.35 ×10⁻² /min; Activity [15]: inactive; Activity [18]: Active; Activity [19]: inactive; Activity [20]: inactive; Activity [21]: inactive; Activity [26]: inactive; Activity [28]: Active; K [29]: 6.25 ×10⁻² /min |
| 13 | 3.94 ×10³ /M | – | Dose-dependent effect | 0.49 mol% | 6.5 µM | Active | – | O=[N+]([O-])c1cc(-c2nc3ccccc3[nH]2)cc(-c2nc3ccccc3[nH]2)c1 | – | – | – | 42.5% | – | – | -2.6% | 45.9% | 48.2% | K [30]: 1.61 ×10⁻¹ /min; Activity [31]: inactive; Activity [32]: Active; K [33]: 6.81 ×10⁻² /min; Activity [34]: inactive; Activity [35]: inactive; Activity [36]: inactive; Activity [37]: Active; Activity [38]: Active; Activity [39]: inactive; Activity [40]: inactive; K [41]: 4.89 ×10⁻² /min; Activity [42]: Active; Activity [43]: Active; Activity [44]: Active; K [45]: 1.28 ×10⁻¹ /min; K [46]: 3.38 ×10⁻² /min |
| 43 | 3.53 ×10³ /M | 4.33 ×10⁻² /min | Dose-dependent effect | 0.15 mol% | 1.99 µM | Active | 3.23 ×10⁻² /min | COc1cc(-c2nc3ccc(C(F)(F)F)cc3[nH]2)cc(-c2nc3ccc(C(F)(F)F)cc3[nH]2)c1 | 8.4 µM | 11.9 µM | 10.7 µM | 91.8% | 8.1 µM | 10.1 µM | 101% | 100% | 98.9% | Activity (MCF7 [47]): Active; K [48]: 1.16 ×10⁻¹ /min; Activity (HeLa [49]): Active; Activity (HeLa [50]): Active; K [51]: 1.47 ×10⁻¹ /min; K [52]: 8.52 ×10⁻² /min; K [53]: 6.31 ×10⁻² /min |
